Measurements from patent US8183270B2, “Insecticidal N-substituted (2-substituted-1,3-thiazol)alkyl sulfoximines” (Dow AgroSciences, LLC, priority 2006, dated 2012).

Key:
[1] = test system: cotton aphid (Aphis gossypii); experiment: Insecticidal test for cotton aphid in foliar spray assay; assay type: in vivo; conditions: foliar spray on squash cotyledons, 3 days after treatment, Corrected % Control (Abbott)
Experimental: The compounds identified in the foregoing examples (compounds 1-5) and in Table 1 (compounds 6-18) were tested against cotton aphid using procedures described hereinafter. Insecticidal Test for Cotton Aphid (Aphis gossypii) in Foliar Spray Assay Squash with fully expanded cotyledon leaves were trimmed to one cotyledon per plant and infested with cotton aphid (wingless adult and nymph) 1 day prior to chemical application. Each plant was examined before chemical application to ensure proper infestation (ca. 30-70 aphids per plant). Compounds (2 mg) were dissolved in 2 ml of acetone:methanol (1:1) solvent, forming stock solutions of 1000 ppm. The stock solutions were diluted 5× with 0.025% Tween 20 in H2O to obtain the highest test solution at 200 ppm. A lower test concentration (50 ppm) was prepared by making sequential a 4× dilution from the 200 ppm solution with a diluent consisting 80 parts of 0.025% Tween 20 in H2O and 20 parts of acetone:methanol (1:1). A hand-held Devilbiss sprayer was used to apply the spray solutions until runoff to both sides of the squash cotyledon leaves. Four plants (4 replications) were used for each concentration of each compound. Reference plants (solvent check) were sprayed with the diluent only. Treated plants were held in a holding room for 3 days at approximately 23° C. and 40% RH before the number of live aphids on each plant was recorded. Insecticidal activity was measured by Corrected % Control using Abbott's correction formula and the values for the lower test concentrations are presented in Table 1: Corrected % Control=100*(X−Y)/X • where X=No. of live aphids on solvent check plants • Y=No. of live aphids on treated plants CA 200 refers to % control at 200 ppm against cotton aphid in foliar spray tests, CA 50 refers to % control at 50 ppm against cotton aphid in foliar spray tests, In each case of Table 2 the rating scale is as follows: […]

melting point [°C]	Structure (SMILES)	CA 50 (% control at 50 ppm against cotton aphid in foliar spray tests) [1]	CA 200 (% control at 200 ppm against cotton aphid in foliar spray tests) [1]
66 to 68	CS(=O)(Cc1csc(C(F)(F)F)n1)=NC#N (stereo not drawn) [Compound 5, Methyl(oxido){[2-(trifluoromethyl)-1,3-thiazol-4-yl]methyl}-λ^4-sulfanylidenecyanamide]	E (50-59)	C (70-79)
–	CC(c1cnc(C(F)(F)F)s1)S(C)(=O)=NC#N (stereo not drawn) [Compound 3, Methyl(oxido){1-[2-(trifluoromethyl)-1,3-thiazol-5-yl]ethyl}-λ^4-sulfanylidenecyanamide]	A (90-100)	A (90-100)
123 to 124	CS(=O)(Cc1cnc(C(F)(F)F)s1)=NC#N (stereo not drawn) [Compound 1, Methyl(oxido){[2-(trifluoromethyl)-1,3-thiazol-5-yl]methyl}-λ^4-sulfanylidenecyanamide]	A (90-100)	A (90-100)
–	CC(C)(c1cnc(C(F)(F)F)s1)S(C)(=O)=NC#N (stereo not drawn) [Compound 2, Methyl(oxido){1-methyl-1-[2-(trifluoromethyl)-1,3-thiazol-5-yl]ethyl}-λ^4-sulfanylidenecyanamide]	C (70-79)	A (90-100)
–	N#CN=S1(=O)CCCC1Cc1cnc(C(F)(F)F)s1 (stereo not drawn) [Compound 4, 1-Oxo-2-(2-trifluoromethyl-thiazol-5-ylmethyl)-tetrahydro-1-λ^6-thiophen-1-ylidene-cyanamide]	A (90-100)	A (90-100)
